System: rat breast cancer cell MTF7
Experiment: Action of 5ALA on MTF7 cells in the cell microchip (fluorescence and growth after Ar ion laser irradiation)
Format: cell-based
Procedure: The cell microchip prepared in Example 1 was used to examine the action of […] (5ALA) on rat breast cancer cell MTF7 according to a method described in Journal of Japan Society for Laser Surgery and Medicine, Vol. 17, No. 1, pp. 1-10 (1996).
MTF7 was provided by Dr. Stephan P. Tomasovic, M. D. Anderson Cancer Center, […], US. MTF7 was proliferated in an a-MEM medium (Sigma Corporation) supplemented with 10% fetal calf serum (FCS) in an incubator for cell culture (37° C. in 5% CO2 under humidity).
The cell microchip (FIG. 4) prepared in Example 1 was placed in a 90 mmf Petri dish, and the flow channel (A) 33, flow channel (B) 34 and flow channel (C) 35 were filled with the above medium. […]
Then the cell microchip wherein the MTF7 cells had been proliferated was removed from the Petri dish, and the above medium was injected via a micro pump into the liquid reservoir 37 of the flow channel (A) 33, and while the above medium containing 5ALA manufactured by Sigma Corporation) at various concentrations (25, 50, 100, 200 and 400 mg/ml) was injected into the liquid reservoir 37 of the flow channel (B) 34, the cells were observed under a fluorescence microscope equipped with the incubator. […] The cells into which the 5ALA-containing medium had not been injected emitted no fluorescence.

NCC(=O)CCC(=O)O [5ALA, d-aminolevulinic acid]
emission of fluorescence under a fluorescence microscope (MTF7 cells at 3-pronged junction, medium containing 5ALA at 25, 50, 100, 200 and 400 mg/ml, irradiated with Ar ion laser at 488 nm, 200 mW): emission of fluorescence was observed | cell growth / survival on continued culture after laser irradiation (MTF7 cells emitting fluorescence (5ALA-containing medium), observed with time under a microscope after Ar ion laser irradiation at 488 nm): terminated their growth and fell eventually into death

Reference: US20060147898A1, “Cell microchip” (NITTO DENKO CORPORATION, priority 2003, published 2006)
